Among the data in ChEMBL document CHEMBL3414435, “Computer aided drug discovery of highly ligand efficient, low molecular weight imidazopyridine analogs as FLT3 inhibitors” (Eur J Med Chem, 2015) are IC50, inhibition and GI50 values, retold here.

Experiment [1] has as its target T1, Receptor-type tyrosine-protein kinase FLT3 (Homo sapiens, UniProt P36888).
T1 sequence (P36888 whole entry): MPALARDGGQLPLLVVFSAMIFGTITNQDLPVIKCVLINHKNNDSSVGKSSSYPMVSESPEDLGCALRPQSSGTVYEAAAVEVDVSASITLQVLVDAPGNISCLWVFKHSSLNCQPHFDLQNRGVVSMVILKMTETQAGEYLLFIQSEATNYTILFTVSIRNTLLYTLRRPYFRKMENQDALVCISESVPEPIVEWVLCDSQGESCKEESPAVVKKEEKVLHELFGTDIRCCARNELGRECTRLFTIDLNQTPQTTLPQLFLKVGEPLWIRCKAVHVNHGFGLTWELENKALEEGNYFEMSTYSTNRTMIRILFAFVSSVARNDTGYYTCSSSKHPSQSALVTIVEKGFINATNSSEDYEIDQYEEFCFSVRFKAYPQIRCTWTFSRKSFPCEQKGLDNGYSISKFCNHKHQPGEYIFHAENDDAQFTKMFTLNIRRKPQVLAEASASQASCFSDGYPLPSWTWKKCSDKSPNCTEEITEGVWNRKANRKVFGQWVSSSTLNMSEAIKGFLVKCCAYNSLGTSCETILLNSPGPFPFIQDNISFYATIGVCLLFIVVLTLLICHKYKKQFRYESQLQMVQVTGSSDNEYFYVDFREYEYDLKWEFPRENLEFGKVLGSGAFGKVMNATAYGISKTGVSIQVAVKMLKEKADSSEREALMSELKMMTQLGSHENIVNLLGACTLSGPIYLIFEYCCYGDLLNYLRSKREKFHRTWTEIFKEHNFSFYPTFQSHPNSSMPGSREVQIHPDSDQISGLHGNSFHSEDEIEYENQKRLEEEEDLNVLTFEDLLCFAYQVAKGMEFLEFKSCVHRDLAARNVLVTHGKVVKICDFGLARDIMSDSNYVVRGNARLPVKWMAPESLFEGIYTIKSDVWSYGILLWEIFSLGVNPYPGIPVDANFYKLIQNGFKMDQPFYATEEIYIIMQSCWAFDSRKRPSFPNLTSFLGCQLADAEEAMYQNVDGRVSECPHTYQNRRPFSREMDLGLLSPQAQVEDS

In experiment [2] the target is Receptor-type tyrosine-protein kinase FLT3 (Homo sapiens) (UniProt P36888). Particulars: at 20 µM.
The subject of experiment [3] is Receptor-type tyrosine-protein kinase FLT3 (Homo sapiens), P36888 [UNDEFINED MUTATION]. In words: Inhibition of FLT3 ITD mutant (unknown origin) expressed in mouse BAF3 cells assessed as cell growth inhibition after 48 hrs by CellTiter-Glo assay. It counts as cell-based. A general note: In ATP-based viability assays light output follows the ATP content of the culture.

For experiment [4] the test system is unchanged. In words: Inhibition of FLT3 ITD mutant in human MOLM14 cells assessed as cell growth inhibition after 48 hrs by CellTiter-Glo assay. It counts as cell-based. To be noted: MOLM-14.
Experiment [5] shares this test system. The experiment in a line: Inhibition of FLT3 ITD mutant in human MV4-11 cells assessed as cell growth inhibition after 48 hrs by CellTiter-Glo assay. It counts as cell-based.
For experiment [6] the test system is unchanged. The experiment in a line: Inhibition of FLT3 ITD D835V mutant (unknown origin) expressed in mouse BAF3 cells assessed as cell growth inhibition after 48 hrs by CellTiter-Glo assay. It counts as cell-based.
Experiment [7] shares this test system. The experiment in a line: Inhibition of FLT3 ITD F691L mutant (unknown origin) expressed in mouse BAF3 cells assessed as cell growth inhibition after 48 hrs by CellTiter-Glo assay. In kind it is cell-based.

For `Cc1ccc(-c2cnc3cc(-c4ccco4)ccn23)cc1`, the IC50 in experiment [1] amounted to 0.16 µM. This molecule displayed an inhibition in experiment [2] of 95.5%.
`Clc1ccn2ccnc2c1` returned an inhibition in experiment [2] of 23.8%.
On to `Cc1ccc(-c2cnc3ccccn23)cc1`, for which, in experiment [2], the inhibition was determined as 77%.
In experiment [1], `Cc1ccc(-c2cnc3cc(-c4ccccc4)ccn23)cc1` came in with an IC50 of 0.3 µM. Moreover, in experiment [2], the inhibition stood at 94.1%.
`N#CCc1ccc(-c2cnc3ccccn23)cc1` registered an inhibition in experiment [2] of 20%.
`Fc1ccc(-c2cnc3cc(-c4ccccc4)ccn23)cc1`: the GI50 is 0.333 µM in experiment [3], 0.513 µM in experiment [4] and 0.706 µM in experiment [5]. In addition, in experiment [1], it took 0.016 µM to reach half-maximal inhibition (IC50). In experiment [2], this molecule registered an inhibition of 98.8%.
Take `c1coc(-c2ccn3ccnc3c2)c1`: the inhibition in experiment [2] was found to be 67.1%.
On the same count and under the same terms, for `Cc1ccc(-c2cnc3cc(-c4cccs4)ccn23)cc1` the value was 89.7%; for `c1ccc(-c2ccn3ccnc3c2)cc1`, 0%.
`COc1ccc(-c2ccn3c(-c4ccc(CC#N)cc4)cnc3c2)cc1` had an IC50 in experiment [1] of 0.43 µM. Moreover, the inhibition in experiment [2] turned out to be 91%.
Regarding `N#CCc1ccc(-c2cnc3cc(-c4ccco4)ccn23)cc1`, the midpoint of inhibition in experiment [1], the IC50, lay at 0.19 µM. In addition, the inhibition in experiment [2] is 97.8%.
Taken in the same sequence, the figures for `Fc1ccc(-c2cnc3ccccn23)cc1` were 0.48 µM and 94.8%.
With `N#Cc1cc(-c2cnc3ccccn23)ccc1F`, in experiment [2], the inhibition is 61.3%.
Same read-out and setting: for `COc1ccc(-c2ccn3ccnc3c2)cc1` the value was 33.9%.
On to `N#CCc1ccc(-c2cnc3cc(-c4cccs4)ccn23)cc1`, for which the IC50 in experiment [1] was found to be 0.051 µM. Further, in experiment [2], the inhibition came to 98%.
For `COc1ccc(-c2ccn3c(-c4ccc(C)cc4)cnc3c2)cc1`, in that order: 0.44 µM and 91.4%.
In turn, `COc1ccc(-c2ccn3c(-c4ccc(F)cc4)cnc3c2)cc1` had a half-maximal inhibitory concentration (IC50) in experiment [1] of 0.078 µM. Also, the inhibition in experiment [2] was determined as 98.6%.
For `c1csc(-c2ccn3ccnc3c2)c1`, in experiment [2], the inhibition worked out at 79.8%.
On to `Fc1ccc(-c2cnc3cc(-c4ccco4)ccn23)cc1`, for which the GI50 in experiment [3] is 0.484 µM; in experiment [6], greater than 1 µM; in experiment [7], greater than 1 µM; in experiment [4] it was 0.712 µM; in experiment [5] it was 0.83 µM. In experiment [1], the IC50 is 0.041 µM. In addition, the inhibition in experiment [2] was 99.3%.
In the case of `COc1ccc(-c2ccn3c(-c4ccc(F)c(C#N)c4)cnc3c2)cc1`, in experiment [2], the inhibition was determined as 81.4%.
Turning to `N#CCc1ccc(-c2cnc3cc(-c4ccccc4)ccn23)cc1`, the midpoint of inhibition in experiment [1], the IC50, lay at 0.55 µM. Besides, in experiment [2], the inhibition amounted to 96.4%.
In experiment [2], `N#Cc1cc(-c2cnc3cc(-c4cccs4)ccn23)ccc1F` registered an inhibition of 29.7%.
In experiment [2], `c1ccn2ccnc2c1` displayed an inhibition of 14.6%.
In experiment [1], `N#Cc1cc(-c2cnc3cc(-c4ccccc4)ccn23)ccc1F` registered an IC50 of 0.23 µM. Further, the inhibition in experiment [2] was 94.1%.
With `N#Cc1cc(-c2cnc3cc(-c4ccco4)ccn23)ccc1F`, inhibition in experiment [1] was half-maximal at 0.47 µM (IC50). In experiment [2], this molecule had an inhibition of 98.7%.

What is called IC50 is the concentration that inhibits the measured activity by half. High values mean weaker potency, low ones greater potency. For orientation: inhibition means the relative decrease from the control value, in per cent. Read a high inhibition as a strong effect. By GI50 is commonly meant the concentration at which growth is held to half of that of the control.
